In paper PMC5045448 (Analytical chemistry, 2016):
Read-outs that look alike come from different tables or passages of the source. Marks after values point to notes of the source that are not given here.

Experiments:
[1] = test system: mAbs reported by He et al.; settings: relative to artemisinin; cited from earlier work
[2] = test system: mAbs raised by artelinic acid-BSA conjugate; settings: cited from earlier work
[3] = test system: mAb 3H7A10; test: Indirect competitive ELISA; type: binding, Balb/c mice; settings: for Cross-reactivity: (IC50 of artemisinin/IC50 of other compound) × 100; for cross reactivities: artemisinin-specific mAb from position 9 hapten; for competitive inhibition: mAb 3H7A10, up to 20,000 ng mL^−1
[4] = test system: polyclonal antibodies prepared by Song et al.; settings: cited from earlier work
[5] = dogs, cited from earlier work
[6] = goat, cited from earlier work
[7] = humans, cited from earlier work
[8] = in vivo; design: species or system Sprague-Dawley rats; settings: Sprague-Dawley, rat, ip, 10 mg/kg
[9] = rats, cited from earlier work
[10] = test system: mAbs generated by Tanaka et al.; settings: relative to artemisinin; cited from earlier work

Compound: CO[C@H]1O[C@@H]2O[C@@]3(C)CC[C@H]4[C@H](C)CC[C@@H]([C@H]1C)[C@@]24OO3 [Artemether]
- Cross-reactivity [1]: 3%
- binding by mAbs [2]: approximately the same level
- Cross-reactivity ([3]; mAb 3H7A10): 0%
- cross reactivities [3]: almost no cross reactivities
- competitive inhibition ([3]; icELISA): No competitive inhibition
- recognition by polyclonal antibodies [4]: equally well

Compound: C[C@@H]1CC[C@H]2[C@@H](C)C(=O)O[C@@H]3O[C@@]4(C)CC[C@@H]1[C@]32OO4 [Artemisinin]
- bioavailability ([5]; oral): bioavailability appeared low
- absorption and bioavailability ([6]; large amount of unabsorbed artemisinin eliminated in feces): slow absorption and low bioavailability
- AUC ([7]; another study): 754 ng·h/mL
- Cmax ([7]; another study): 167 ng/mL
- AUC ([7]; one study): 2,611 ng mL^−1 h
- Cmax ([7]; one study): 623 ng/mL
- half-life [7]: ~ 2 h
- binding by mAbs [2]: approximately the same level
- Cross-reactivity ([3]; mAb 3H7A10): 100 ± 4.6%
- IC50 ([3]; icELISA, mAb 3H7A10, means of triplicate ± SD, NI = no inhibition observed with up to 20,000 ng mL^−1 of the analytes): 2.60 ±0.12 ^b ng/mL
- AUC(0-t) [8]: 43.7 ng·h/mL
- Cmax [8]: 29.1 ± 3 ng/mL
- Tmax [8]: 5 min
- half-life [8]: 22.8 min
- half-life ([9]; in all these studies): ~ 30 min
- AUC0-24h ([9]; intraperitoneal injection, 10 mg/kg): 0.132 µM/h
- AUC0-3h ([9]; oral administration, 10 mg/kg): 36.4 ng·h/mL

Compound: C[C@H]1[C@H](OC(=O)CCC(=O)O)O[C@@H]2O[C@@]3(C)CC[C@H]4[C@H](C)CC[C@@H]1[C@@]24OO3 [Artesunate]
- Cross-reactivity [10]: 630%
- Cross-reactivity [1]: 650%
- Cross-reactivity ([3]; mAb 3H7A10): 0%
- cross reactivities [3]: almost no cross reactivities
- competitive inhibition ([3]; icELISA): No competitive inhibition
- recognition by polyclonal antibodies [4]: equally well

Compound: CCN(CC)CCCC(C)Nc1ccnc2cc(Cl)ccc12.O=P(O)(O)O.O=P(O)(O)O (stereo not drawn) [Chloroquine diphosphate salt]
- Cross-reactivity ([3]; mAb 3H7A10): 0%

Compound: C[C@H]1[C@@H](O)O[C@@H]2O[C@@]3(C)CC[C@H]4[C@H](C)CC[C@@H]1[C@@]24OO3 [Dihydroartemisinin]
- Cross-reactivity [10]: 30%
- blood concentrations ([5]; oral artemisinin): < 0.1 µM
- Cross-reactivity [1]: 57%
- time of peak of the metabolite ([6]; after artemisinin): 12 h
- Cross-reactivity ([3]; mAb 3H7A10): 0%
- cross reactivities [3]: almost no cross reactivities
- competitive inhibition ([3]; icELISA): No competitive inhibition
- recognition by polyclonal antibodies [4]: equally well

Compound: CCCCN(CCCC)CC(O)c1cc(Cl)cc2c1-c1ccc(Cl)cc1/C2=C/c1ccc(Cl)cc1 (stereo not drawn) [Lumefantrine]
- Cross-reactivity ([3]; mAb 3H7A10): 0%

Compound: COc1cc(NC(C)CCCN)c2ncccc2c1 (stereo not drawn) [Primaquine phosphate]
- Cross-reactivity ([3]; mAb 3H7A10): 0%

Compound: CCc1nc(N)nc(N)c1-c1ccc(Cl)cc1 [Pyrimethamine]
- Cross-reactivity ([3]; mAb 3H7A10): 0%

Compound: C=C[C@H]1C[N@@]2CC[C@H]1C[C@H]2[C@H](O)c1ccnc2ccc(OC)cc12 [Quinine]
- Cross-reactivity ([3]; mAb 3H7A10): 0%
